Results from publication PMC5487955, “Microarray Selection of Cooperative Peptides for Modulating Enzyme Activities” (Microarrays, 2017).
Several values for one entry are separate records, joined by “and”; a condition that tells them apart may be missing. Equal entries are not always repeated. Where no end group is shown, it is not given here.

What was measured:
[1] = test system: crosslinked PEP-1–β-Gal complex; test: Peptide microarray binding of crosslinked PEP-1–β-Gal complex; settings: negative control selection
Experimental: Firstly, 20 μM PEP-1 (sequence of “RVFKRKRWLHVSRYYFGSC”) was incubated with 30 nM β-Gal for 20 min, and then 0.5% formaldehyde was added to the peptide/enzyme mixture. It was then incubated for another 20 min in order to crosslink the peptide with enzyme. The entire mixture was then diluted by 100 × in phosphate buffer to bring the overall peptide concentration as low as 200 nM.

[2] = test system: inhibited PEP-1–β-Gal complex; test: Recovery of PEP-1 inhibited enzyme activity; format: biochemical; settings: 320 μM NEG added, incubated another 20 min; 1 nM β-Gal preincubated with PEP-1 for 20 min
Experimental: (§1) Solution-based enzyme assays were performed on SpectraMax M5 96 well plate readers (Molecular Device, Sunnyvale, CA, USA) as described previously. Simply explained, peptides were first incubated with enzyme for 20 min, and then the substrate solution was added into the wells to measure the enzyme activity. At least three replicates per peptide were included. The β-gal-catalyzed hydrolysis of RBG was fluorescently monitored at 590 nm (resorufin) with the excitation at 540 nm. For a typical assay, ~0.3 nM or 1 nM β-Gal was incubated with peptides and 100 μM RBG substrate in pH 7.4, 10 mM potassium phosphate buffer with 100 μM MgCl2 at 25 °C. The reaction rate was determined by the initial velocity of the linear reaction. The percentage of reduced/inhibited enzyme activity was calculated as below: Percentage of reduced activity=(1−Inhibited activity/Noninhibited activity)×100%
For recovery of PEP-1 inhibited enzyme activity, 1 nM β-Gal was first incubated with PEP-1 for 20 min for inhibiting activity, and then NEG peptide was added to the solution and incubated for another 20 min before the activity assay.

[3] = molecular target: T1, β-galactosidase (β-Gal) (Escherichia coli, UniProt P00722); settings: negative control selection
Excerpt: Microarrays of 10,000 20-mer peptides were produced by Arizona State University as previously reported [14, 17]. […] Each polypeptide was 20 residues in length, with 17 positions randomly chosen from a set of 19 amino acids (excluding cysteine). The C-terminal 3 positions of each peptide was a glycine–serine–cysteine (GSC) linker, which was used for conjugating peptides to amino-silane surfaces via a maleimide linker, sulfosuccinimidyl 4-(N-maleimidomethyl)cyclohexane-1-carboxylate (Sulfo-SMCC; Pierce, Rockford, IL, USA). The array printing was performed by using a Telechem Nanoprint60 (Arrayit, Sunnyvale, CA, USA) hat spotted approximately 500 pL of 1 mg/mL peptide per feature on glass slides with 48 Telechem series SMP2-style 946 titanium pins (Arrayit).
Binding of enzymes on the microarray was performed as previously described [17, 18]. […] Then, the array was incubated with a solution containing 5 nM Alexa 647-labeled β-Gal or PEP-1–β-Gal complex for two hours, allowing the enzyme to bind with peptides on the array surface. After washing off unbound enzymes, the array was read by a standard array reader (PerkinElmer, Waltham, MA, USA) with color scanning using 647 nm laser lines.

[4] = molecular target: T1, β-galactosidase (β-Gal); test: biochemical; design: purchased Sigma (St. Louis, MO, USA); settings: for reduction of enzyme activity, combination with PEP-1: 100 μM NEW peptide + 2 μM PEP-1; for reduction of enzyme activity, NEW peptide alone: 100 μM peptide by itself, pH 7.4 10 mM potassium phosphate, 100 μM MgCl2, 25 °C, at least three replicates
Experimental: as §1, with “activity)×100% […]” for “activity)×100%”
Figure S1. Titration of IC 50 for PEP-1. The IC 50 of peptide inhibition is measured at a substrate concentration of 100 μM RBG (resorufin β -D-galactopyranoside) and β-Gal concentration of 150 μg/L, 25 °C. All tests included three replicates. Error bar: range of data.
The IC50 of each inhibitor was determined by fitting the concentration vs. inhibition curve to the function ‘Fit LogIC50’ as defined in the program GraphPad Prism 7 using the fitting equation “Y=Bottom+(Top-Bottom)/(1+10^(X-LogIC50))”. The “Bottom” term was constrained to 1, which represents the maximal inhibition of 100%. The “Top” term was constrained to 0, which represents the minimal inhibition of 0%.
The enzyme inhibition was also quantitatively characterized using the inhibition percentage that was calculated using the following equation:
Inhibition Percentage = (Activity uninhibited – Activity inhibited)/ Activity uninhibited × 100%
(1 picture or pasted object on this page, not shown here)

[5] = 100 μM RBG, pH 7.4, 25 °C, 20 min preincubation
[6] = 100 μM RBG, 20 min preincubation

T1 sequence (P00722 2-1024): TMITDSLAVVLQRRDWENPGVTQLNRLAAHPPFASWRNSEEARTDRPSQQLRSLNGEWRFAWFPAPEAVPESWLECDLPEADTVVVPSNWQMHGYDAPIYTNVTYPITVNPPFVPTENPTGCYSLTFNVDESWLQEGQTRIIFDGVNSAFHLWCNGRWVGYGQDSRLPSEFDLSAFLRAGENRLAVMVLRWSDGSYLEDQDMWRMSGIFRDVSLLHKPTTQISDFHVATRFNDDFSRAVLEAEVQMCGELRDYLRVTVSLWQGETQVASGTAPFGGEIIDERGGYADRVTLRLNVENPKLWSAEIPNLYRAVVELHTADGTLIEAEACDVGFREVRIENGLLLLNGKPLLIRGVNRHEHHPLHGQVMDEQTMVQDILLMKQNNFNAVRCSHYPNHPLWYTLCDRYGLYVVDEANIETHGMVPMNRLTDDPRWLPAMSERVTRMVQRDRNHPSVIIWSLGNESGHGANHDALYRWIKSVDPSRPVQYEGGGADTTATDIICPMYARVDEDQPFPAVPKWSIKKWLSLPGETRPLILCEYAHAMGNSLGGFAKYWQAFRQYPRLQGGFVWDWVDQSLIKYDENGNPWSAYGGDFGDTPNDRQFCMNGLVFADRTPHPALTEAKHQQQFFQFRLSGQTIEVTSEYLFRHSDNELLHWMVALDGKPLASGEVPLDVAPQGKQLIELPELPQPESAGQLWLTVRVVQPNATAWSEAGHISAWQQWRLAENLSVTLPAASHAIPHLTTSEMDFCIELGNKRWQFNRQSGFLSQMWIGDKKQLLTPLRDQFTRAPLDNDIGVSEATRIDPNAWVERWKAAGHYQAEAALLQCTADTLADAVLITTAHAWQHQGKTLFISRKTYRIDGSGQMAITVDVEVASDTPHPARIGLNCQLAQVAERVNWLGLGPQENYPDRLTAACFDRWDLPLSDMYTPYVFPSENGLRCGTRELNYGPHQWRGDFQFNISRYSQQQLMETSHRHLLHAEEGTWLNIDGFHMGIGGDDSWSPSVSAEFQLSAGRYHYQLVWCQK

Row | Sequence | reduction of enzyme activity, combination with PEP-1 [4, 5] | reduction of enzyme activity, NEW peptide alone [4, 6] | also measured
1 | ESVPTDLPMDTMEGKNWGSC [NEG, negatively-charged negative control peptide] |  |  | binding to crosslinked PEP-1–β-gal complex on microarray (in words) [1]: did not show strong binding; activity of inhibited PEP-1–β-Gal complex, % of uninhibited enzyme [2]: ~45%; binding to β-Gal on microarray (in words) [3]: neither bound to β-Gal; inhibition of β-Gal activity, NEG combined with PEP-1 ([4]; 10 μM NEG + 2 μM PEP-1): 24%; inhibition of β-Gal, NEG combined with PEP-1 (in words) ([4]; 100 μM NEG + 2 μM PEP-1): almost lost the ability to inhibit β-Gal
2 | GVSHLHWIKMLNETTVMGSC [NEW-1] | ~ 70% | less than 10% | 
3 | HISPQHMMAYSPKAFDYGSC [NEW-2] | ~ 73% | ~ 12% | 
4 | MHNHAFNDNHGRGPTAWGSC [NEW-4] | 91% | ~ 26% | 
5 | RVFKRKRWLHVSRYYFGSC [PEP-1] |  |  | IC50 [4]: ~1600 nM; reduction of enzyme activity, PEP-1 by itself ([4]; 2 μM PEP-1 alone, 100 μM RBG, pH 7.4, 25 °C, 20 min preincubation): ~ 57% and 57%
6 | YDTLHRNRQMMDWQFEPGSC [NEW-3] | ~ 86% | ~ 19% | 
